Values joined by “and” are separate entries in the source; they are usually repeats but may differ in a detail not shown here. Equal entries are not always repeated.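 Five concentrations, 48 hours, 96-well plates. GI50: concentration for 50% inhibition of growth. TGI marks complete inhibition of growth.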
Key:
Assay in all cases: DTP human tumour cell line panel, 48 h
UO-31 renal = system: UO-31 renal
NCI-H460 lung = system: NCI-H460 lung
SK-OV-3 ovarian = system: SK-OV-3 ovarian
SW-620 colon = system: SW-620 colon
ACHN renal = system: ACHN renal
OVCAR-8 ovarian = system: OVCAR-8 ovarian
SK-MEL-28 melanoma = system: SK-MEL-28 melanoma
OVCAR-4 ovarian = system: OVCAR-4 ovarian
LOX IMVI melanoma = system: LOX IMVI melanoma
NCI/ADR-RES ovarian = system: NCI/ADR-RES ovarian

SMILES	GI50 (UO-31 renal) [µM]	TGI (UO-31 renal) [µM]	GI50 (NCI-H460 lung) [µM]	TGI (NCI-H460 lung) [µM]	GI50 (SK-OV-3 ovarian) [µM]	TGI (SK-OV-3 ovarian) [µM]	GI50 (SW-620 colon)	TGI (SW-620 colon) [µM]	GI50 (ACHN renal) [µM]	TGI (ACHN renal) [µM]	GI50 (OVCAR-8 ovarian) [µM]	TGI (OVCAR-8 ovarian) [µM]	GI50 (SK-MEL-28 melanoma) [µM]	TGI (SK-MEL-28 melanoma) [µM]	GI50 (OVCAR-4 ovarian) [µM]	TGI (OVCAR-4 ovarian) [µM]	GI50 (LOX IMVI melanoma) [µM]	TGI (LOX IMVI melanoma) [µM]	GI50 (NCI/ADR-RES ovarian) [µM]	TGI (NCI/ADR-RES ovarian) [µM]
CC[O-].CC[O-].O=C([CH-]C(=O)c1ccccc1)c1ccccc1.O=C([CH-]C(=O)c1ccccc1)c1ccccc1.[Ti+4]	> 100	> 100	44.3	> 100	> 100	> 100	> 100 µM	> 100	> 100	> 100	79.4	> 100	> 100	> 100	> 100	> 100	> 100	> 100		
CC(C)(C)C[P+](C)(C)c1ccccc1		> 100		> 100		> 100		> 100		> 100		> 100		> 100		> 100		> 100		
Oc1[nH]c2ccc(Cl)cc2c1/C=c1/ccc2c(c1)N=C(c1cc(F)cc(F)c1)N=2	87.3	> 100			31.9	> 100			7.42	> 100			5.06	> 100	2.77	> 100	3.52	> 100	2.32	5.87
Cc1cc2c(cc1C)[n+]([O-])c(-c1c(Cl)cccc1Cl)c(N)[n+]2[O-]		88.8		> 100		> 100		> 100		> 100		> 100		89.6		> 100		> 100		
Cc1cccc(N=C2NC(=O)C(CC(=O)Nc3ccc(Cl)cc3C)S2)c1 (configuration not stated)		> 100		> 100		> 100		> 100		> 100		> 100		> 100		> 100		> 100		
CCC[CH2][Sn]1([CH2]CCC)[O]C(=O)c2cc(C)ccc2[O]1	1.19	2.45	1.54	2.87	1.58	2.99	0.211 µM	0.574	0.457	1.59	0.725	2.05	0.682	2.03	0.707	2.06	0.309	1.13		
O=C(NO)c1cnc(N2CCN(S(=O)(=O)c3ccc4ccccc4c3)CC2)nc1	0.0597	0.854	0.0535	11.9	0.147	2.33	0.0349 µM		0.0723	0.595	0.0276	1.92	0.062	1.15	0.081	23.6			0.0324	
N#CC12Cc3ccc4c(c3-c3cccc(c31)CCN2C(=O)c1ccccc1)OCO4 (configuration not stated)		> 100				> 100		> 100		> 100		> 100		> 100				> 100		
CC12OC3CC(O1)C1(C=O)C4CCC5(C)C(c6ccc(=O)oc6)CCC5(O)C4CCC1(C3)O2 (configuration not stated)		0.97		0.159		0.513		1.27		0.348		1.2		1.49		0.308		0.524		
CC(C)[O-].CC(C)[O-].[O-]c1cccc2cccnc12.[O-]c1cccc2cccnc12.[Ti+4]	> 100	> 100			> 100	> 100	6.47 µM and 5.89 µM	> 100	88.6	> 100		> 100	56.5	> 100			74	> 100		
O=C1c2ccccc2C(=O)c2c(NC(=O)c3ccc4c5c(ncnc35)-c3ccccc3C4=O)cccc21		> 100		> 100		48.2		> 100		> 100		> 100		> 100		> 100				> 100
COc1cccc(Nc2nccc(Nc3ccc4[nH]ncc4c3)n2)c1			1.64	4.17	2.31	5.4	2.41 µM	6.13			1.67	4.39			1.46	4.03	1.44	3.19	1.54	4.36
COC(=O)C1=Cc2c(OC)cc(OC)c(OC)c2[C@H](c2cc(OC)c(OC)cc2OC)C1C(=O)OC (some centres not stated)		> 100		> 100		> 100		> 100		> 100		> 100		> 100		> 100		> 100		
Cc1sc(/N=C2/NC(=O)CS2)nc1-c1nc(/N=C2/NC(=O)CS2)sc1C	> 50	> 50	23.4	> 50			> 50 µM	> 50	> 50	> 50	> 50	> 50	26.7	> 50			> 50	> 50	21.2	> 50
CCc1oc2ccc(OC)c3c2c1C=CC=C3		> 100		> 100		> 100		> 100		> 100		> 100		> 100		> 100		> 100		
O=c1[nH]c2c(O)cccc2c2cc3c(c(O)c12)OCO3		54.1		36.6		84.7		> 100		49.4		> 100				43.6		38.9		
CC(C)NC(=O)O/N=C1\CCC2[C@@H]3CC=C4C[C@@H](OC(=O)NC(C)C)CC[C@]4(C)C3CC[C@]12C (some centres not stated)		2.3		3.06		13.5		3.72		2.17		3.75		3.26		3.5		2.27		
CCOC(=O)C1CC/C(=C(/C#N)C(=O)OC)N1 (configuration not stated)		> 100		> 100		> 100		> 100		> 100		> 100		> 100		> 100		> 100		
CCOC(=O)N1CCC(=O)C[C@@H]1C/C=C/P1(=O)O[C@H](c2ccccc2)C(C)N1C(C)C (some centres not stated)		> 100				> 100		> 100		> 100		> 100		> 100		> 100				
